“Also recorded” adds a separate entry of the source.
Legend:
LPX [1] = biological target: T1, LPX (Bos taurus, UniProt P80025); assay: LPX-mediated covalent binding of labelled thiocarbamides to LPX; design: species or system bovine; conditions: +H2O2 vs. +H2O2 +KI; 14C- and 35S-labelled
T1 construct: purchased Sigma Chemical Company
Text: (§1) Materials used in the examples below were obtained from the following sources. Bovine LPX, bovine liver catalase, glucose oxidase, 30% hydrogen peroxide, glucose, guaiacol, ABTS and deuterium oxide were purchased from Sigma Chemical Company. Selenium dioxide, MBI ^13 CH3 I and PBA were purchased from Aldrich Chemical Company and PBA was purified as previously described by Fieset et al., Reagents for Organic Synthesis, Vol. I, pp.135-139, John Wiley and Sons, N.Y. (1967). LPX purity was checked by PAGE, as described by Doerge, D.R., et al. in, Biochem. Pharmacol., Vol.36, pp.972-974 (1986). TPX was purified from hog thyroids obtained from a local slaughterhouse by published procedures. Doerge & Takazowa, Chemical Research in Toxicology, Vol. 3, pp. 98-101 (1990). TPX purity was determined by LC and its concentration determined spectophotometrically. Hydroperoxide concentrations were determined by iodometric titration, as described by Kolthoff, et al., in "Quantitative Chemical Analysis", Macmillan, London, pp.842-860 (1969). MMBI, and BI were synthesized by published procedures as described by Doerge, D.R., Biochem, Vol. 27, pp. 3697-3700 (1988) and were recrystallized from aqueous ethanol. MeBI was purified by distillation and DMeBI^+ was synthesized and purified by recrystallization from ethyl acetate/methanol. 1-^13 C-MMBI was synthesized from ^13 CH3 I according to the procedure disclosed by Doerge, D.R., in, J. Lab. Comp. and Radiopharm., Vol.25, pp.985-990 (1988). PPHP and PPA were prepared, purified and analyzed as previously described by Doerge, Biochem, Vol.27, p.11 (1988). The methyl ester of 1-methyl-benzimidazole-2-sulfinic acid was prepared by addition of hydrogen peroxide (5 equivalents of a 10 M solution) to MMBI (0.1 M) in methanol. The products, MeBI and the ester, were obtained following preparative TLC on silica (Uniplate, Analtech Co., Newark, DL) using 5% methanol/chloroform as eluant.
LPX-mediated covalent binding of ^14 C- and ^35 S-labelled thiocarbamides to LPX under iodide-dependent and -independent conditions was measured.

TPX = biological target: T2, TPX (Sus scrofa, UniProt P09933); assay: TPX inactivation; format: biochemical, hog
T2 sequence (P09933 15-926): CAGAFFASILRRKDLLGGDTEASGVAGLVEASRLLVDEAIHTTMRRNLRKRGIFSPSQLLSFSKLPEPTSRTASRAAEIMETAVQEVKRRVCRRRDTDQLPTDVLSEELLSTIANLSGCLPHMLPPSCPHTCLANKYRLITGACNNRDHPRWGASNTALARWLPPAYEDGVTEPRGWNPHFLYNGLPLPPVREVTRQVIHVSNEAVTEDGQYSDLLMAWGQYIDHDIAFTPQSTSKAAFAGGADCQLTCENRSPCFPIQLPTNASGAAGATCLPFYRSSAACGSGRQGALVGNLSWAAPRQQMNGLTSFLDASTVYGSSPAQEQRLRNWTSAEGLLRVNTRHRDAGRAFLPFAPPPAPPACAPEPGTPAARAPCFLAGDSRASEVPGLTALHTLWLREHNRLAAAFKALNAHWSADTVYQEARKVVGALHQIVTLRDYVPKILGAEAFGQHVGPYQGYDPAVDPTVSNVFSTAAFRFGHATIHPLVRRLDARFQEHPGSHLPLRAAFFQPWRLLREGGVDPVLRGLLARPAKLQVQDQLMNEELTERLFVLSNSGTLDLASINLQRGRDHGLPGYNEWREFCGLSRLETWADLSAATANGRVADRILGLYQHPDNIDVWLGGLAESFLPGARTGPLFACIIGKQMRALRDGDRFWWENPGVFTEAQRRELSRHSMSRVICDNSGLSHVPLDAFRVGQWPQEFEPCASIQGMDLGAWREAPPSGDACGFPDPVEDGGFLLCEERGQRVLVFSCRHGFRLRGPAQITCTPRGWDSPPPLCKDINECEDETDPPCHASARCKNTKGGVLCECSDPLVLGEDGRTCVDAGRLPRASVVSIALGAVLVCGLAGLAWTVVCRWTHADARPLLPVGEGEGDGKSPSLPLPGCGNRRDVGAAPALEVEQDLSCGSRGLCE
Text: as §1
DMMBI was synthesized according to a published method. Duffin et al., J. Chem. Soc., Part II, pp.364-365 (1956). Samples including TPX, H2 O2, and I^- were incubated with and without DMMBI. Triiodide formation was observed spectrophotometrically with respect to time.

LPX [2] = biological target: T1, LPX; assay: LPX-catalyzed iodide ion oxidation (triiodide formation); format: biochemical, bovine
Text: as §1, with “The products, MeBI and the ester, were obtained following preparative TLC on silica (Uniplate, Analtech Co., Newark, DL) using 5% methanol/chloroform as eluant.” left out
Inhibition of LPX activity by thiones was determined from the kinetics of iodide ion, guaiacol or ABTS oxidation assays conducted at 25° C. Kinetic parameters of suicide inactivation were determined as previously described. […]

covalent binding to LPX (LPX [1]): no binding over unstimulated controls
TPX inactivation (TPX; 100 μM, 1 minute incubation): does not inactivate TPX
TPX inactivation (TPX; presence of hydrogen peroxide): does not inactivate LPX or TPX
SMILES: Cn1c(=S)n(C)c2ccccc21 [DMMBI, 1,3-dimethylbenzimidazole-2-thione]
inhibition of iodide ion oxidation (triiodide formation) (LPX [2]; LPX, H2O2, iodide ion): marked inhibition of iodide ion oxidation; also recorded: inhibits only iodide ion oxidation
lag period (LPX [2]; dependence on DMMBI concentration): proportional to the concentration of DMMBI

— patent publication US5371102A, “Compositions and methods of inhibiting thyroid activity” (priority 1993, dated 1994)
